Laboratory results: US10556898B2, “Indazolyl-1,2,4-thiadiazolamines and related compounds for inhibition of Rho-associated protein kinase and the treatment of disease” (Lycera Corporation, priority 2016, dated 2020)
Read-outs that look alike come from different tables or passages of the source.

Tests used:
[1] = molecular target: T1, GST-tagged human ROCK2 catalytic domain 1-553 (Homo sapiens, UniProt O75116); assay: Isolated Enzyme Assay, ROCK2 (LANCE Ultra ULight-CREBtide FRET); type: biochemical; conditions: isolated enzyme assay; 30 μM highest concentration tested; read-out: Results from Isolated Enzyme Assay IC50 (μM) ROCK2
T1 construct: GST-tagged human ROCK2 catalytic domain 1-553 from Carna Biosciences (Cat #01-110); purchased Carna Biosciences 01-110; host or cells: baculovirus expression system
How it was run: (§1)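 Baculovirus-expressed constitutively active ROCK1 or ROCK2 (2 nM) incubated 90 min at room temperature with 50 nM ULight-CREBtide and compound (0.5% DMSO) in Tris pH 7.5, MgCl2, EGTA, Tween-20, DTT. EDTA-stopped; phospho-substrate detected by Eu-anti-phospho-CREB TR-FRET after 60 min; IC50 by non-linear regression.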

ROCK1 = molecular target: T2, ROCK1 (Homo sapiens, UniProt Q13464); assay: Cell-Based Assay, ROCK1 (HAP1 knockout cells, phospho-MYPT1 Thr853 ELISA); conditions: read-out: Results from Cell-Based Assay IC50 (μM) ROCK1
T2 construct: endogenous in cells; host or cells: HAP1 knockout cells
Experimental: Part II—Procedure for Determining ROCK Inhibition Ability of Test Compounds Using a Cell-Base Assay
The Cell-Based Assay for determining ROCK inhibition ability of test compounds utilized a genetically modified HAP1 cell line engineered to eliminate expression of either ROCK1 or ROCK2. In the procedure, HAP1 knockout cells are grown in Iscove's Modified Dulbecco's Medium that is additionally supplemented with 10% fetal bovine and 1x antibiotic-antimycotic mixture. Cells are plated in 96 well tissue culture plates at 1×10^5 cells/well (100 μL, of cells at 1×10^6/mL). Test compounds are solubilized in DMSO and diluted into the same media used to grow the cells. A 100 μL, aliquot of each compound dilution in media is added to each well containing the HAP1 cells and incubated at 37° C. for 30 minutes. Following compound incubation, the cells are pelleted by centrifugation at 1800 rpm for 5 minutes at 4° C. Media is removed from the cell pellet and the cells lysed and de-salted. An 80 μL, aliquot of each cell lysate is added to a single well of a 96-well high binding ELISA plate which has been pre-coated with a MYPT1 capture antibody and incubated at 4° C. overnight. The following day the ELISA plate is washed 4× with 0.05% Tween-20 in PBS. After washing, an anti-phospho-MYPT1 (Thr853) antibody is added and allowed to bind for 1 hour at room temperature. The wash step is repeated, and then an anti-rabbit HRP detection antibody is added and allowed to incubate at room temperature for 1 hour. The wash step is then repeated and 100 μL/well 1-Step™ Ultra TMB substrate is added to the ELISA plate and allowed to develop for approximately 5 minutes. The reaction is stopped by addition of H2SO4. Absorbance is read at 450 OD. Data is analyzed using GraphPad Prism software to calculate the 50% inhibitory concentration of test compound (IC50).

[2] = molecular target: T3, GST-tagged human ROCK1 catalytic domain 1-477 (Homo sapiens, UniProt Q13464); assay: Isolated Enzyme Assay, ROCK1 (LANCE Ultra ULight-CREBtide FRET); type: biochemical; conditions: isolated enzyme assay; 30 μM highest concentration tested; read-out: Results from Isolated Enzyme Assay IC50 (μM) ROCK1
T3 construct: human ROCK1 catalytic domain 1-477 from Carna Biosciences (cat #01-109); purchased Carna Biosciences 01-109; host or cells: baculovirus expression system
How it was run: as §1

ROCK2 = molecular target: T4, ROCK2 (Homo sapiens, UniProt O75116); assay: Cell-Based Assay, ROCK2 (HAP1 knockout cells, phospho-MYPT1 Thr853 ELISA); conditions: class symbols, read-out: Results from Cell-Based Assay IC50 (μM) ROCK2
T4 construct: endogenous in cells; host or cells: HAP1 knockout cells

[3] = rat stroke model; cited from earlier work
[4] = porcine model of IL-1 beta-induced coronary stenosis; cited from earlier work

T3 sequence (Q13464 1-477): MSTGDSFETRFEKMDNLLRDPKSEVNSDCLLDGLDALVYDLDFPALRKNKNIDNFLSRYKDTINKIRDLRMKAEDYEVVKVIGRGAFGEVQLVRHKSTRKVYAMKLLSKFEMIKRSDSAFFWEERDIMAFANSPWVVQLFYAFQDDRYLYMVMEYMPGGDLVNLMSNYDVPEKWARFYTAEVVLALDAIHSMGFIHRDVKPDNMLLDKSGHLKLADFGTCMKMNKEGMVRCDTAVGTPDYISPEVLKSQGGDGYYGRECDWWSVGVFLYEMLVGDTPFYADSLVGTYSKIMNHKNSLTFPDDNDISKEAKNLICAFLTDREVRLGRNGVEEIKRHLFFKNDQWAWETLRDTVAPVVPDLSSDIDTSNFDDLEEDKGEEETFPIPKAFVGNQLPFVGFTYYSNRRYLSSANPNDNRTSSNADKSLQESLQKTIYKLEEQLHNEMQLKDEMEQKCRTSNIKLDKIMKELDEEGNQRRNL
T4 sequence (O75116 whole entry): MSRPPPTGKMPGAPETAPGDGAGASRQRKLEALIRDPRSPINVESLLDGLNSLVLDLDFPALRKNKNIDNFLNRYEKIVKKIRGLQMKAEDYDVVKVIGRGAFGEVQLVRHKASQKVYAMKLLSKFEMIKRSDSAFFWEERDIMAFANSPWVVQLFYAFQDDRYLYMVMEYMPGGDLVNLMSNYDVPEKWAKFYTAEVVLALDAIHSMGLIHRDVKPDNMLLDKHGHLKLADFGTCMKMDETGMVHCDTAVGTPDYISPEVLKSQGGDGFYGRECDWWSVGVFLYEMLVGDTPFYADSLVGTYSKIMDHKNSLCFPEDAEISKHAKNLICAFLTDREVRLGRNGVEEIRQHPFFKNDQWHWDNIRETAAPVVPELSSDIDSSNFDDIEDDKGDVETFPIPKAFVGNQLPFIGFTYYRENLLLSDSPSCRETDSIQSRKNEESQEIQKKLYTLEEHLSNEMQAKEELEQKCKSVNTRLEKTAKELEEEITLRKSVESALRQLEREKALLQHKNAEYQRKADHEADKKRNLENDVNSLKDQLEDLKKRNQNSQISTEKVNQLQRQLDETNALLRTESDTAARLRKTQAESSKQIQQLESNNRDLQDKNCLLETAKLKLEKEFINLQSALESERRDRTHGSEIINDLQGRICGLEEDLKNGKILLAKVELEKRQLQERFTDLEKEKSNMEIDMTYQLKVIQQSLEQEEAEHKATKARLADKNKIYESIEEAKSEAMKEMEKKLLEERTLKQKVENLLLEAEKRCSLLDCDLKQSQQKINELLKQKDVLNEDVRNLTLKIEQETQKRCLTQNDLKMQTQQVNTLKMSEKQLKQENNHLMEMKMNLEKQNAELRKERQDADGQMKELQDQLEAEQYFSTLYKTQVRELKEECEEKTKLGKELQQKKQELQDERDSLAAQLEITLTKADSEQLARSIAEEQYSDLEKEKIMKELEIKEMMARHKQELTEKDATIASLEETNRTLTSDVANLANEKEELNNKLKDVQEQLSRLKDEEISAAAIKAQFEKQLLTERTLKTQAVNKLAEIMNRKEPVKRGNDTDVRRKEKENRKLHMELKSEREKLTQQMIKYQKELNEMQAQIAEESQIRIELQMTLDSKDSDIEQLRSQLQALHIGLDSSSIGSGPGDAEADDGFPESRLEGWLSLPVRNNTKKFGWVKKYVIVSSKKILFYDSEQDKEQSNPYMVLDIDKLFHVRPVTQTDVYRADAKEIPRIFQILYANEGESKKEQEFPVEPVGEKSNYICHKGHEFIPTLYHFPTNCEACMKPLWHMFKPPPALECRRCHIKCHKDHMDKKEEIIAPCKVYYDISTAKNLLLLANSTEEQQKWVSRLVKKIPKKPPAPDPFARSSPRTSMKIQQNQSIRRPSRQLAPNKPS
T1 sequence (O75116 1-553): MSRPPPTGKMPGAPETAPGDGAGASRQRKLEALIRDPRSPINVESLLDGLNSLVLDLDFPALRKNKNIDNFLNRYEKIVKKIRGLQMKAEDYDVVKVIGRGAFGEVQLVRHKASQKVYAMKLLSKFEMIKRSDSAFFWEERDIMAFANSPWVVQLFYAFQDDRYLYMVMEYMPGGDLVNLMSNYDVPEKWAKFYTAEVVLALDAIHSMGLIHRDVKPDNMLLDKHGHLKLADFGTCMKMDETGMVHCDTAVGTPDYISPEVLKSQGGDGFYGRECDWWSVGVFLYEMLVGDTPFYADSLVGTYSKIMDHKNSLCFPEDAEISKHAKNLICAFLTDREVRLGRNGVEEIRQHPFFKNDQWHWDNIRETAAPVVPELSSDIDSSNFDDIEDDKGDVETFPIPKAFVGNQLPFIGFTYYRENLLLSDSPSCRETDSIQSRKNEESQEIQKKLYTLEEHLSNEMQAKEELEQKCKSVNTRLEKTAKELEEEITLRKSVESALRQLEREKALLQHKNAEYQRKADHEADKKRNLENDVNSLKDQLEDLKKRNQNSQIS
T2 sequence (Q13464 whole entry): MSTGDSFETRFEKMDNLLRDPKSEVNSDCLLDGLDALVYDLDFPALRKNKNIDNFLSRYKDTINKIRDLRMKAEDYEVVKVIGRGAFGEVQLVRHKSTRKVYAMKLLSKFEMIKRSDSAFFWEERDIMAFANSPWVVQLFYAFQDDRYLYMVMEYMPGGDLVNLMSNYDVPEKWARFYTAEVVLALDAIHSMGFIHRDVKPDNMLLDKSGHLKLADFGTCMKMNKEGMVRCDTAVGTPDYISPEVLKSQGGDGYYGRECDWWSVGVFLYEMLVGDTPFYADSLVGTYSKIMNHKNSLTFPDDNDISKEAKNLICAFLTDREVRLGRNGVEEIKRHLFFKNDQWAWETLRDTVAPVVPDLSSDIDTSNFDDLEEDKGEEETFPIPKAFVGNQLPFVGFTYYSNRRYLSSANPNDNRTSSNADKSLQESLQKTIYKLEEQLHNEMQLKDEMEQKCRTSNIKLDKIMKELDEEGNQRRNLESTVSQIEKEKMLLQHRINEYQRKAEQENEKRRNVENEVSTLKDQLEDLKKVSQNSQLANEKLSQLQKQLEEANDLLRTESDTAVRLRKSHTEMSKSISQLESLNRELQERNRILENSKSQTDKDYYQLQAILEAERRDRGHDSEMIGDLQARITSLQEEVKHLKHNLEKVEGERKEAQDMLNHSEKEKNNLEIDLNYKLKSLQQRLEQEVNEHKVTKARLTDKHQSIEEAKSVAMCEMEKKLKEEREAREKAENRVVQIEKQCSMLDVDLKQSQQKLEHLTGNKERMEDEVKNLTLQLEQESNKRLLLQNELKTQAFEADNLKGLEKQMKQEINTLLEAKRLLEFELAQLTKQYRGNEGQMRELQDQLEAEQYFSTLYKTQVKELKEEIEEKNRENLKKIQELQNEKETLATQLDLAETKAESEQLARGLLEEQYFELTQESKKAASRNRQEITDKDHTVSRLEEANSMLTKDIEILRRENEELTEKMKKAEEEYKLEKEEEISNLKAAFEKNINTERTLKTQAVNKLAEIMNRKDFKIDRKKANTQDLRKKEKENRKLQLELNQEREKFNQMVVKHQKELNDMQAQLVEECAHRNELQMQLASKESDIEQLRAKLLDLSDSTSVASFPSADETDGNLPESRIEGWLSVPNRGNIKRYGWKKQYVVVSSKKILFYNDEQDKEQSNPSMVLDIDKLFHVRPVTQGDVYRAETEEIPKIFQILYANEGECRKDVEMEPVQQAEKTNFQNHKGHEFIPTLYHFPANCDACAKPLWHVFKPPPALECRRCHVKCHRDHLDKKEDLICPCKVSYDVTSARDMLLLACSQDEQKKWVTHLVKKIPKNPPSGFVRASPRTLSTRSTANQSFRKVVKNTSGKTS

IC50 [1]	IC50 (ROCK1; numeric bound)	IC50 [2]	IC50 (ROCK2)	IC50 (ROCK1; class symbols)	Structure (SMILES)	infarct size and neurologic deficit [3]	coronary stenosis [4]
< 1 µM	> 10 µM	< 1 µM	< 1 µM	–	O=C(NCC(F)(F)F)c1cccc(-c2nsc(Nc3ccc4[nH]ncc4c3Cl)n2)c1 [IV-81]	–	–
1 to 15 µM	–	< 1 µM	< 1 µM	1 to 15 µM	Cn1cnc2c(-c3nsc(Nc4ccc5[nH]ncc5c4Cl)n3)cccc21 [IV-82]	–	–
< 1 µM	–	< 1 µM	< 1 µM	1 to 15 µM	O=C1CCCN1c1cccc(-c2nsc(Nc3ccc4[nH]ncc4c3Cl)n2)c1 [IV-83]	–	–

Second part, the compound before the results:

Structure (SMILES)	IC50 [1]	IC50 (ROCK1; numeric bound)	IC50 [2]	IC50 (ROCK2)	IC50 (ROCK1; class symbols)	infarct size and neurologic deficit [3]	coronary stenosis [4]
Cn1cc(C(=O)Nc2cccc(-c3nsc(Nc4ccc5[nH]ncc5c4Cl)n3)c2)cn1 [IV-78]	< 1 µM	> 10 µM	< 1 µM	< 1 µM	–	–	–
CC(C)N1CCN(c2cc(-c3nsc(Nc4ccc5[nH]ncc5c4Cl)n3)ccn2)C1=O [IV-90]	< 1 µM	–	< 1 µM	< 1 µM	1 to 15 µM	–	–
CNC(=O)c1cccc(-c2nsc(Nc3ccc4[nH]ncc4c3Cl)n2)c1 [IV-107]	< 1 µM	> 10 µM	< 1 µM	< 1 µM	–	–	–
O=S(=O)(c1cccc2cnccc12)N1CCCNCC1 [fasudil]	–	–	–	–	–	reduce both the infarct size and neurologic deficit	progressively reduce coronary stenosis
